From US6881741B2 (ViroChem Pharma Inc., priority 2001, dated 2005)

molecular target: recombinant HCV NS5B (HCV RNA-dependent RNA polymerase) (Hepatitis C virus genotype 1b, UniProt P26663); assay: biochemical; conditions: HCV polymerase activity, list of compounds of Example 27; read-out: IC50 (polymerase activity)
Sequence (P26663 2420-3010 limits assumed): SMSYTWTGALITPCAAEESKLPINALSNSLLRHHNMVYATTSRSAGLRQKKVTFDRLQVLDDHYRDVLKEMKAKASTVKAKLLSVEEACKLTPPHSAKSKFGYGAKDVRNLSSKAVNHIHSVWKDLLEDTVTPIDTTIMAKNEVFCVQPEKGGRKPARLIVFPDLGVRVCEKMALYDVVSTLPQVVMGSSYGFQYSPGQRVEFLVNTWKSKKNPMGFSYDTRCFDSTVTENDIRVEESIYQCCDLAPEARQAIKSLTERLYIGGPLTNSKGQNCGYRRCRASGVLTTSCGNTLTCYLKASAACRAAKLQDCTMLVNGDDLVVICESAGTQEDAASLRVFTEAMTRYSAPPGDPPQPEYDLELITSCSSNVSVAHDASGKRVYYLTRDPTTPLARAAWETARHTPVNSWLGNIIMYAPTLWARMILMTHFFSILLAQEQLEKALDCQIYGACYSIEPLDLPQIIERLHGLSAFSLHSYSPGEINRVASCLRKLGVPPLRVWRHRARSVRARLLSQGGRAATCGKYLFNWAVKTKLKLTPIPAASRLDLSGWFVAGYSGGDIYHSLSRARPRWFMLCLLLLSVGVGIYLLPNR

| SMILES | IC50 |
| --- | --- |
| O=C(O)c1sc(-c2ccccc2)cc1N(CC1CCN(C(=O)OCc2ccccc2)CC1)C(=O)c1ccc(Cl)cc1Cl [Compound 508, 4-{[(2-CARBOXY-5-PHENYL-THIOPHEN-3- YL)-(2,4-DICHLORO-BENZOYL)-AMINO]- METHYL}-PIPERIDINE-1-CARBOXYLIC ACID BENZYL ESTER] | < 5 µM |
| CC(C)N(C(=O)C1=CC[C@@H](C)CC1)c1cc(-c2ccccc2)sc1C(=O)O [Compound 562, 3-[(4S)-ISOPROPYL-(4-METHYL- CYCLOHEX-1-ENECARBONYL)-AMINO]-5- PHENYL-THIOPHENE-2-CARBOXYLIC ACID] | < 5 µM |
| O=C(O)c1sc(-c2ccccc2)cc1N(C(=O)c1ccc(Cl)cc1Cl)C1CCCNC1 (stereo not drawn) [Compound 514, 3-[(2,4-DICHLORO-BENZOYL)-PIPERIDIN- 3-YL-AMINO]-5-PHENYL-THIOPHENE-2- CARBOXYLIC ACID; COMPOUND WITH GENERIC INORGANIC NEUTRAL COMPONENT] | < 5 µM |
| CC(C)CC(=O)N(Cc1ccc(F)cc1F)c1cc(-c2ccccc2)sc1C(=O)O [Compound 486, 3-[(2,4-DIFLUORO-BENZYL)-(3-METHYL- BUTYRYL)-AMINO]-5-PHENYL- THIOPHENE-2-CARBOXYLIC ACID] | 5 to 20 µM |
| CC(C)N(C(=O)c1cc2c(Cl)cc(Cl)cc2[nH]1)c1cc(-c2ccccc2)sc1C(=O)O [Compound 521, 3-[(4,6-DICHLORO-1#H!-INDOLE-2- CARBONYL)-ISOPROPYL-AMINO]-5- PHENYL-THIOPHENE-2-CARBOXYLIC ACID] | < 5 µM |
| CC1CCC(C(=O)N(c2cc(-c3ccccc3)sc2C(=O)O)C2COC(C)(C)OC2)CC1 (stereo not drawn) [Compound 517, 3-[(2,2-DIMETHYL-[1,3]DIOXAN-5-YL)-(4- METHYL-CYCLOHEXANECARBONYL)- AMINO]-5-PHENYL-THIOPHENE-2- CARBOXYLIC ACID] | < 5 µM |
| Cc1cccc(CN(C(=O)CC2CCCC2)c2cc(-c3ccccc3)sc2C(=O)O)c1 [Compound 445, 3-[(2-CYCLOPENTYL-ACETYL)-(3- METHYL-BENZYL)-AMINO]-5-PHENYL- THIOPHENE-2-CARBOXYLIC ACID] | < 5 µM |
| C=CCN(C(=O)CC1CCCC1)c1cc(-c2ccccc2)sc1C(=O)O [Compound 401, 3-[ALLYL-(2-CYCLOPENTYL-ACETYL)- AMINO]-5-PHENYL-THIOPHENE-2- CARBOXYLIC ACID] | < 5 µM |
| CC1CCC(C(=O)N(c2cc(C3=CCN(C(=O)OCc4ccccc4)CC3)sc2C(=O)O)C(C)C)CC1 (stereo not drawn) [Compound 524, 4-{5-CARBOXY-4-[ISOPROPYL-(4- METHYL-CYCLOHEXANECARBONYL)- AMINO]-THIOPHEN-2-YL}-3,6-DIHYDRO- 2#H!-PYRIDINE-1-CARBOXYLIC ACID BENZYL ESTER] | < 5 µM |
| Cc1ccc(S(=O)(=O)Nc2cc(-c3ccccc3)sc2C(N)=O)c(C)c1 [Compound 568, 3-(2,4-DIMETHYL- BENZENESULFONYLAMINO)-5-PHENYL- THIOPHENE-2-CARBOXYLIC ACID AMIDE] | 5 to 20 µM |
| CC(C)(C)OC(=O)N1CCC(N(C(=O)c2ccc(Cl)cc2Cl)c2cc(-c3ccccc3)sc2C(=O)O)C1 (stereo not drawn) [Compound 499, 3-[(2-CARBOXY-5-PHENYL-THIOPHEN-3- YL)-(2,4-DICHLORO-BENZOYL)-AMINO]- PYRROLIDINE-1-CARBOXYLIC ACID #TERT!-BUTYL ESTER] | < 5 µM |
| CC(=O)N(Cc1cccc(Cl)c1)c1cc(-c2ccccc2)sc1C(=O)O [Compound 476, 3-[ACETYL-(3-CHLORO-BENZYL)-AMINO]- 5-PHENYL-THIOPHENE-2-CARBOXYLIC ACID] | > 20 µM |

same assay, conditions: related polymerase activity (Example 27 list); read-out: IC50

| SMILES | IC50 |
| --- | --- |
| Cc1ccccc1S(=O)(=O)Nc1cc(-c2ccc(OC(F)(F)F)cc2)sc1C(=O)O [Compound 60, 3-(TOLUENE-2-SULFONYLAMINO)-5-(4-TRIFLUOROMETHOXY-PHENYL)-THIOPHENE-2-CARBOXYLIC ACID] | < 5 µM |
| Cc1ccc(C(=O)N(C)c2cc(-c3ccccc3Cl)sc2C(=O)O)cc1 [Compound 207, 5-(2-CHLORO-PHENYL)-3-[METHYL-(4-METHYL-BENZOYL)-AMINO]-THIOPHENE-2-CARBOXYLIC ACID] | 5 to 20 µM |
| Cc1ccc(C(=O)N(C)c2cc(-c3ccccc3)sc2C(=O)O)cc1 [Compound 93, 3-[METHYL-(4-METHYL-BENZOYL)-AMINO]-5-PHENYL-THIOPHENE-2-CARBOXYLIC ACID] | < 5 µM |
| O=C(O)c1sc(-c2ccccc2)cc1N(Cc1ccccc1)C(=O)c1ccc(Cl)cc1Cl [Compound 233, 3-[BENZYL-(2,4-DICHLORO-BENZOYL)-AMINO]-5-PHENYL-THIOPHENE-2-CARBOXYLIC ACID] | < 5 µM |
| Cc1ccc(C(=O)N(C)c2cc(-c3ccccc3)sc2C(=O)O)cc1[N+](=O)[O-] [Compound 257, 3-[METHYL-(4-METHYL-3-NITRO-BENZOYL)-AMINO]-5-PHENYL-THIOPHENE-2-CARBOXYLIC ACID] | 5 to 20 µM |
| CC(=O)c1ccc(-c2cc(N(C(=O)c3ccc(Cl)cc3Cl)C(C)C)c(C(=O)O)s2)s1 [Compound 358, 5′-ACETYL-4-[(2,4-DICHLORO-BENZOYL)- ISOPROPYL-AMINO]-[2,2′]BITHIOPHENYL- 5-CARBOXYLIC ACID] | < 5 µM |
| Cc1ccc(C(=O)N(C)c2cc(-c3ccccn3)sc2C(=O)O)cc1 [Compound 296, 3-[METHYL-(4-METHYL-BENZOYL)-AMINO]-5-PYRIDIN-2-YL-THIOPHENE-2-CARBOXYLIC ACID] | 5 to 20 µM |
| O=C(O)c1sc(-c2ccccc2)cc1NS(=O)(=O)c1cccc(Br)c1 [Compound 42, 3-(3-BROMO-BENZENESULFONYLAMINO)-5-PHENYL-THIOPHENE-2-CARBOXYLIC ACID] | 5 to 20 µM |
| O=C(O)c1sc(-c2ccccc2)cc1NS(=O)(=O)c1cccc(Cl)c1 [Compound 40, 3-(3-CHLORO-BENZENESULFONYLAMINO)-5-PHENYL-THIOPHENE-2-CARBOXYLIC ACID] | < 5 µM |
| Cc1cc(S(=O)(=O)Nc2cc(-c3ccccc3)sc2C(=O)O)c(C)cc1Cl [Compound 3, 3-(4-CHLORO-2,5-DIMETHYL-BENZENESULFONYLAMINO)-5-PHENYL-THIOPHENE-2-CARBOXYLIC ACID] | 5 to 20 µM |
| Cc1cccc(-c2cc(N(C(=O)c3ccc(Cl)cc3Cl)C(C)C)c(C(=O)O)s2)c1 [Compound 357, 3-[(2,4-DICHLORO-BENZOYL)- ISOPROPYL-AMINO]-5-M-TOLYL- THIOPHENE-2-CARBOXYLIC ACID] | < 5 µM |
| CC(C)CN(C(=O)c1ccc(Cl)cc1Cl)c1cc(-c2ccccc2)sc1C(=O)O [Compound 204, 3-[(2,4-DICHLORO-BENZOYL)-ISOBUTYL-AMINO]-5-PHENYL-THIOPHENE-2-CARBOXYLIC ACID] | < 5 µM |
| O=C(O)c1sc(-c2ccccc2)cc1NS(=O)(=O)c1ccc(F)c(F)c1F [Compound 222, 5-PHENYL-3-(2,3,4-TRIFLUORO-BENZENESULFONYLAMINO)-THIOPHENE-2-CARBOXYLIC ACID] | 5 to 20 µM |
| Cc1ccc(S(=O)(=O)Nc2cc(-c3ccsc3)sc2C(=O)O)cc1 [Compound 11, 4-(TOLUENE-4-SULFONYLAMINO)-[2,3′]BITHIOPHENYL-5-CARBOXYLIC ACID] | 5 to 20 µM |
| O=C(O)c1sc(-c2ccccc2)cc1NC(=O)N1CCc2ccccc2C1 [Compound 180, 3-[(3,4-DIHYDRO-1H-ISOQUINOLINE-2-CARBONYL)-AMINO]-5-PHENYL-THIOPHENE-2-CARBOXYLIC ACID] | 5 to 20 µM |
| Cc1ccccc1S(=O)(=O)Nc1cc(-c2cccc(F)c2)sc1C(=O)O [Compound 67, 5-(3-FLUORO-PHENYL)-3-(TOLUENE-2-SULFONYLAMINO)-THIOPHENE-2-CARBOXYLIC ACID] | < 5 µM |
| C=CCN(C(=O)Cc1c(Cl)cccc1Cl)c1cc(-c2ccccc2)sc1C(=O)O [Compound 353, 3-{ALLYL-[2-(2,6-DICHLORO-PHENYL)- ACETYL]-AMINO}-5-PHENYL-THIOPHENE- 2-CARBOXYLIC ACID] | 5 to 20 µM |
| Cc1ccccc1S(=O)(=O)Nc1cc(-c2cc(F)cc(F)c2)sc1C(=O)O [Compound 69, 5-(3,5-DIFLUORO-PHENYL)-3-(TOLUENE-2-SULFONYLAMINO)-THIOPHENE-2-CARBOXYLIC ACID] | < 5 µM |
| O=C(O)c1sc(-c2ccccc2)cc1NS(=O)(=O)c1ccc(F)cc1C(F)(F)F [Compound 141, 3-(4-FLUORO-2-TRIFLUOROMETHYL-BENZENESULFONYLAMINO)-5-PHENYL-THIOPHENE-2-CARBOXYLIC ACID] | 5 to 20 µM |
| CC(C)N(C(=O)c1ccc(Cl)cc1Cl)c1cc(-c2cc3ccccc3o2)sc1C(=O)O [Compound 376, 5-BENZOFURAN-2-YL-3-[(2,4-DICHLORO- BENZOYL)-ISOPROPYL-AMINO]- THIOPHENE-2-CARBOXYLIC ACID] | < 5 µM |
| O=C(O)c1sc(-c2ccccc2)cc1NS(=O)(=O)c1ccc(C(F)(F)F)cc1 [Compound 52, 5-PHENYL-3-(4-TRIFLUOROMETHYL-BENZENESULFONYLAMINO)-THIOPHENE-2-CARBOXYLIC ACID] | < 5 µM |
| O=C(O)c1sc(-c2ccccc2)cc1NS(=O)(=O)c1ccc(Br)cc1 [Compound 39, 3-(4-BROMO-BENZENESULFONYLAMINO)-5-PHENYL-THIOPHENE-2-CARBOXYLIC ACID] | < 5 µM |
| Cc1ccccc1S(=O)(=O)Nc1cc(-c2ccc(Cl)cc2)sc1C(=O)O [Compound 68, 5-(4-CHLORO-PHENYL)-3-(TOLUENE-2-SULFONYLAMINO)-THIOPHENE-2-CARBOXYLIC ACID] | < 5 µM |
| COc1cc(C)ccc1S(=O)(=O)Nc1cc(-c2ccccc2)sc1C(=O)O [Compound 142, 3-(2-METHOXY-4-METHYL-BENZENESULFONYLAMINO)-5-PHENYL-THIOPHENE-2-CARBOXYLIC ACID] | 5 to 20 µM |
| CC(C)N(C(=O)c1ccc(Cl)cc1)c1cc(-c2ccccc2)sc1C(=O)O [Compound 210, 3-[(4-CHLORO-BENZOYL)-ISOPROPYL-AMINO]-5-PHENYL-THIOPHENE-2-CARBOXYLIC ACID] | < 5 µM |
| Cc1ccc(C(=O)N(Cc2cccc(C(F)(F)F)c2)c2cc(-c3ccccc3)sc2C(=O)O)cc1 [Compound 330, 3-[(4-METHYL-BENZOYL)-(3- TRIFLUOROMETHYL-BENZYL)-AMINO]-5- PHENYL-THIOPHENE-2-CARBOXYLIC ACID] | < 5 µM |
| Cc1ccccc1S(=O)(=O)Nc1cc(-c2cccc(C#N)c2)sc1C(=O)O [Compound 117, 5-(3-CYANO-PHENYL)-3-(TOLUENE-2-SULFONYLAMINO)-THIOPHENE-2-CARBOXYLIC ACID] | < 5 µM |
